Converted amounts (≈) assume the structure as drawn. Where a name gives a salt, the structure may show the parent alone. Read-outs that look alike come from different tables or passages of the source.

For one assay, the system named is E. coli TK-3. In words: Antibacterial activity (MIC, agar dilution) against E. coli TK-3*. The following applies: Escherichia coli. It is filed as cell-based. The procedure:
(§1) According to Chemotherapy, vol. 29, No. 1, pp. 76-79 (1981), bacterium was cultured in peptone broth manufactured by Eiken Kagaku K.K. at 37° C. for 20 hours to prepare a bacterial solution of 10^8 cells/ml, and one loopful of the bacterial solution was inoculated into Heart Infusion agar medium (manufactured by Eiken Kagaku K.K.) containing a drug, cultured at 37° C. for 20 hours, after which growth of bacterium was observed. The minimum concentration at which the growth of bacterium was prevented was indicated as MIC (μg/ml).
(§2) *means that β-lactamaseproducing bacteria.
For orientation: In agar dilution, organisms are placed on agar that contains the substance at set levels.

The test system of the next assay is S. marcescens W-8. In words: Antibacterial activity (MIC, agar dilution) against S. marcescens W-8*. It is filed as cell-based. The following applies: Serratia marcescens. The method, then:
as §1, §2

[1] abbreviates: TK3, E. coli TK-3* (β-lactamase-producing bacteria), Heart Infusion agar, 37° C., 20 hours, one loopful of 10^8 cells/ml, read-out: MIC.
Setting [2] is: W8, S. marcescens W-8* (β-lactamase-producing bacteria), Heart Infusion agar, 37° C., 20 hours, one loopful of 10^8 cells/ml, read-out: MIC.

As for `O=C(O)C=CC=NN1CCN([C@]2(C(=O)O)CN3C(=O)[C@@H](NC(=O)C(C(=O)O)c4ccccc4)[C@H]3S2)C1=O` (stereo partly shown) [compound 11], the MIC is 0.2 µg/mL (≈ 0.376 µM) in the assay with E. coli TK-3 (setting [1]) and 0.1 µg/mL (≈ 0.188 µM) with S. marcescens W-8 (setting [2]).
Take `NC(=O)NN1CCN([C@]2(C(=O)O)CN3C(=O)[C@@H](NC(=O)[C@@H](c4ccc(O)cc4)S(=O)(=O)O)[C@H]3S2)C1=O` [compound 40]: the MIC in the assay on E. coli TK-3 (TK3, 20 h) worked out at 3.13 µg/mL (≈ 5.75 µM); with S. marcescens W-8 (W8, 20 h), 0.78 µg/mL (≈ 1.43 µM).
As to `NC(=O)NN1CCN([C@]2(C(=O)O)CN3C(=O)[C@@H](NC(=O)[C@@H](c4cc(O)c(O)cc4Cl)S(=O)(=O)O)[C@H]3S2)C1=O` [compound 42], the MIC amounted to 0.2 µg/mL (≈ 0.336 µM) in the assay on E. coli TK-3 (setting [1]) and 0.39 µg/mL (≈ 0.655 µM) with S. marcescens W-8 (W8, 20 h).
Regarding `CC(=O)Oc1cc(Cl)c(C(C(=O)N[C@@H]2C(=O)N3C[C@@](C(=O)O)(N4CCN(NC(N)=O)C4=O)S[C@H]23)S(=O)(=O)O)cc1OC(C)=O` (stereo partly shown) [compound 20], the minimal inhibitory concentration (MIC) with E. coli TK-3 (setting [1]) and in the assay with S. marcescens W-8 (setting [2]) was 0.78 µg/mL (≈ 1.15 µM) throughout.
`CNC(=O)NN1CCN([C@]2(C(=O)O)CN3C(=O)[C@@H](NC(=O)C(C(=O)O)c4ccc(O)cc4)[C@H]3S2)C1=O` (stereo partly shown) [compound 17]: the MIC in the assay on E. coli TK-3 (setting [1]) and in the assay on S. marcescens W-8 (setting [2]) was 1.56 µg/mL (≈ 2.99 µM) throughout.
With `CC(=O)Oc1ccc(C(C(=O)N[C@@H]2C(=O)N3C[C@@](C(=O)O)(N4CCN(NC(N)=O)C4=O)S[C@H]23)S(=O)(=O)O)cc1` (stereo partly shown) [compound 29], the MIC with E. coli TK-3 (setting [1]) worked out at 6.25 µg/mL (≈ 10.7 µM); in the assay with S. marcescens W-8 (setting [2]), 3.13 µg/mL (≈ 5.34 µM).
As to `CC(=O)Oc1ccc(C(C(=O)N[C@@H]2C(=O)N3C[C@@](C(=O)O)(N4CCN(NC(N)=O)C4=O)S[C@H]23)S(=O)(=O)O)cc1OC(C)=O` (stereo partly shown) [compound 28], the minimum inhibitory concentration (MIC) in the assay with E. coli TK-3 (setting [1]) worked out at 6.25 µg/mL (≈ 9.7 µM); against S. marcescens W-8 (W8, 20 h), 3.13 µg/mL (≈ 4.86 µM).
Turning to `NC(=O)Nc1ccc([C@H](C(=O)N[C@@H]2C(=O)N3C[C@@](C(=O)O)(N4CCN(NC(N)=O)C4=O)S[C@H]23)S(=O)(=O)O)c(Cl)c1` [compound 36], the MIC in the assay on E. coli TK-3 (setting [1]) came to 12.5 µg/mL (≈ 20.1 µM); in the assay with S. marcescens W-8 (setting [2]), 1.56 µg/mL (≈ 2.51 µM).
As to `NC(=O)NN=CC=NN1CCN([C@]2(C(=O)O)CN3C(=O)[C@@H](NC(=O)[C@@H](c4cc(O)c(O)cc4Cl)S(=O)(=O)O)[C@H]3S2)C1=O` [compound 43], the minimum inhibitory concentration (MIC) in the assay with E. coli TK-3 (setting [1]) and in the assay on S. marcescens W-8 (setting [2]) was 0.2 µg/mL (≈ 0.308 µM) each time.
Regarding `CCN1CCN(C(=O)NN2CCN([C@]3(C(=O)O)CN4C(=O)[C@@H](NC(=O)C(C(=O)O)c5ccc(O)cc5)[C@H]4S3)C2=O)C(=O)C1=O` (stereo partly shown) [compound 14], the MIC with E. coli TK-3 (setting [1]) and in the assay with S. marcescens W-8 (setting [2]) was 3.13 µg/mL (≈ 4.94 µM) each time.
For the compound `NC(=O)NN1CCN([C@]2(C(=O)O)CN3C(=O)[C@@H](NC(=O)C(c4cc(O)c(O)cc4Cl)S(=O)(=O)O)[C@H]3S2)C1=O` (stereo partly shown) [compound 21], the MIC in the assay with E. coli TK-3 (setting [1]) and in the assay on S. marcescens W-8 (setting [2]) was 0.39 µg/mL (≈ 0.655 µM) in each case.
Regarding `O=C(O)C(C(=O)N[C@@H]1C(=O)N2C[C@@](C(=O)O)(N3CCN(N=Cc4ccc(O)c(O)c4)C3=O)S[C@H]12)c1ccccc1` (stereo partly shown) [compound 4], the MIC in the assay with E. coli TK-3 (setting [1]) and in the assay with S. marcescens W-8 (setting [2]) was 6.25 µg/mL (≈ 11 µM) throughout.
With `C#CC=NN1CCN([C@]2(C(=O)O)CN3C(=O)[C@@H](NC(=O)C(C(=O)O)c4ccc(O)cc4)[C@H]3S2)C1=O` (stereo partly shown) [compound 19], the minimum inhibitory concentration (MIC) with E. coli TK-3 (TK3, 20 h) was not above 0.05 µg/mL; against S. marcescens W-8 (W8, 20 h) it was not above 0.05 µg/mL.
`NC(=O)NN1CCN([C@]2(C(=O)O)CN3C(=O)[C@@H](NC(=O)[C@@H](c4ccc(O)c(O)c4)S(=O)(=O)O)[C@H]3S2)C1=O` [compound 41]: the minimum inhibitory concentration (MIC) turned out to be 3.13 µg/mL (≈ 5.58 µM) in the assay with E. coli TK-3 (TK3, 20 h) and 1.56 µg/mL (≈ 2.78 µM) in the assay with S. marcescens W-8 (setting [2]).
As to `CCN1CCN(C(=O)N[C@@H](C(=O)N[C@@H]2C(=O)N3C[C@@](C(=O)O)(N4CCN(C)C4=O)S[C@H]23)c2ccccc2)C(=O)C1=O` [compound 51, Sodium salt of (3R,5R,6R)3-carboxy-6-[D-α-(4-ethyl-2,3-dioxo-1-piperazinecarboxamio)-α-phenylacetamido]-3-(3-methyl-2-oxoimidazolidin-1-yl)-7-oxo-4-tha-1-azabicyclo[3.2.0]heptane, reference compound], the MIC with E. coli TK-3 (setting [1]) and in the assay on S. marcescens W-8 (setting [2]) was more than 200 µg/mL in each case.
Consider `CC(=O)Oc1ccc(C(C(=O)N[C@@H]2C(=O)N3C[C@@](C(=O)O)(N4CCN(N=C5SCCS5)C4=O)S[C@H]23)S(=O)(=O)O)cc1OC(C)=O` (stereo partly shown) [compound 27], for which the MIC in the assay with E. coli TK-3 (setting [1]) came to 1.56 µg/mL (≈ 2.22 µM).

Usually MIC stands for the least concentration at which growth counts as inhibited.

These data come from patent US5185330A, “Penam derivatives and salts thereof, and antibacterial agent comprising the same” (Toyama Chemical Co., Ltd., priority 1989, dated 1993).
